Molecules are shown by their SMILES.

Data set [1] can be described thus: Rotarod test (motor coordination, ataxia). The format is in vivo. The note with it: mouse, ip, mice, i.p., Table 8, read-out: TI Rot. (ED50 rotarod failure / ED50 MES). The procedure: All compounds were dissolved in 0.9% saline.
(§1) The MES test was performed together with tests for myorelaxant action (traction reflex) and motor coordination (rotarod). For the traction reflex test mice were placed with their forepaws on a horizontal rod and were required to place all 4 paws on the wire within 10 seconds. To test ataxia (motor coordination) mice were placed on rotarod (5 rpm) and were required to remain on the rod for 1 minute. […] These tests were followed by MES (100 Hz, 0.5 second shock duration, 50 mA shock intensity, 0.9 ms impulse duration, Ugo Basile) applied through corneal electrodes. The presence of tonic convulsions was scored (tonic extension of hind paws with minimum angle to the body of 90°). The aim was to obtain ED50 s for all parameters scored (anticonvulsive activity and motor side effects) with use of the Litchfield Wilcoxon test for quantal dose responses. Division of the ED50 for side effects (ataxia or myorelaxation) by the ED50 for antagonism of electroshock convulsions was used as a therapeutic index (TI).
(§2) Pearson product moment correlation analysis (Sigma Stat, Jandel Scientific) was used to compare in vitro potencies and in vivo anticonvulsant activity.
(In general: In the rotarod test animals must keep their balance on a rotating rod.)

Data set [2] can be described thus: Traction reflex test (myorelaxant action). The format is in vivo. The note with it: mouse, traction reflex versus mes, ip; mice, i.p.; Table 8; read-out: TI Tract. (ED50 traction reflex impairment / ED50 MES). Here is the method:
(§3) NMR female mice (18-28 g) housed 5 per cage were used for the maximal electroshock (MES) and motor impairment tests. […] All compounds were dissolved in 0.9% saline.
as §1, with “(TI). […]” for “(TI).”

The target of another data set is NMDA receptor. Kind of data set: [3H]-(+)-MK-801 receptor binding to rat cortical membranes. The note with it: read-out: [3H]MK-801 IC50, [3H]-(+)-MK-801 5 nM, Table 7. The procedure: Male Sprague-Dawley rats (200-250 g) were decapitated and their brains were removed rapidly. The cortex was dissected and homogenized in 20 volumes of ice-cold 0.32 M sucrose using a glass-Teflon homogenizer. The homogenate was centrifuged at 1000×g for 10 minutes. The pellet was discarded and the supernatant centrifuged at 20,000×g for 20 minutes. The resulting pellet was re-suspended in 20 volumes of distilled water and centrifuged for 20 minutes at 8000×g. Then the supernatant and the buffy coat were centrifuged three times (48,000×g for 20 minutes) in the presence of 50 mM Tris-HCl, pH 8.0. All centrifugation steps were carried out at 4° C. After resuspension in 5 volumes of 50 mM Tris-HCl, pH 8.0 the membrane suspension was frozen rapidly at -80° C. On the day of assay the membranes were thawed and washed four times by resuspension in 50 mM Tris-HCl, pH 8.0 and centrifugation at 48,000×g for 20 minutes. The final pellet was suspended in assay buffer. The amount of protein in the final membrane preparation was determined according to the method of Lowry with some modifications. The final protein concentration used for our studies was between 250-500 μg/ml.
Membranes were re-suspended and incubated in 50 mM Tris-HCl, pH 8.0. […] Incubations were terminated using a Millipore filter system. The samples were rinsed three times with 2.5 ml ice cold assay buffer over glass fiber filters obtained from Schleicher & Schuell under a constant vacuum. Filtration was performed as rapidly as possible. Following separation and rinse, the filters were placed into scintillation liquid (5 ml; Ultima Gold) and radioactivity retained on the filters was determined with a conventional liquid scintillation counter (Hewlett Packard, Liquid Scintillation Analyser).
IC50 s in patch clamp, excitotoxicity, and binding studies were calculated according to the four parameter alogistic equation using the Grafit computer program (Erithacus Software, England). Ki value for binding studies were then determined according to Cheng and Prusoff. Binding values presented are means ±SEM of 3-5 determinations (each performed in duplicate).

The conditions of data set [3]: i.p.; Table 8.
Data set [4] deals with MES-induced convulsions in mice. Description: Anticonvulsive activity: maximal electroshock (MES) test. It is filed as in vivo. The note with it: for ED50: Mus musculus, ip, 0.5 h; for MES ED50: i.p., Table 8, 30 min. The procedure: as §3, §1, §2
The subject of the next data set is traction reflex in mice. Kind of data set: Traction reflex test (myorelaxant action). The format is in vivo. The note with it: i.p., Table 8. Here is the method:
as §3
as §1, with “(TI). […]” for “(TI).”

Regarding `C[C@@H]1CC(C)(C)C[C@@](C)(N)C1` (relative stereo) [Mrz 2/607], the selectivity ratio in data set [1] (rotarod versus mes) is 1.7; in data set [2], 1.3.
Regarding `CCC[C@@]1(C)C[C@H](C)C[C@@](C)(N)C1` (relative stereo) [Mrz 2/618], the selectivity ratio was 1.1 in data set [1] (rotarod versus mes) and 1.2 in data set [2].
For `CCC[C@]1(C)C[C@@H](C)C[C@@](C)(N)C1` (relative stereo) [Mrz 2/619], in that order: 1 and 1.
One may read the IC50 as the point on the concentration scale where inhibition reaches its midpoint. For the compound `CC[C@@]1(C)C[C@H](C)C[C@@](C)(N)C1` (relative stereo) [Mrz 2/622], the selectivity ratio in data set [1] (rotarod versus mes) was 1.7; in data set [2], 1.1. Moreover, on NMDA receptor, the IC50 worked out at 150 µM.
Consider `CC[C@]1(C)C[C@@H](C)C[C@@](C)(N)C1` (relative stereo) [Mrz 2/624], for which the selectivity ratio turned out to be 1 in data set [1] (rotarod versus mes) and 0.9 in data set [2].
Turning to `C[C@@H]1CCC[C@@](C)(N)C1` (relative stereo) [Mrz 2/625], the results for the selectivity ratio in data set [1] (rotarod versus mes) and in data set [2] were 1.2 and 0.5, respectively.
In the case of `CCC[C@@H]1CCC[C@@](C)(N)C1` (relative stereo) [Mrz 2/627], the selectivity ratio turned out to be 1 in data set [1] (rotarod versus mes) and 0.8 in data set [2].
On to `CCC[C@H]1CCC[C@@](C)(N)C1` (relative stereo) [Mrz 2/628], for which the selectivity ratio in data set [1] (rotarod versus mes) came to 1.6; in data set [2] it was 0.8.
For `CC[C@@H]1CCC[C@@](C)(N)C1` (relative stereo) [Mrz 2/629], in that order: 0.9 and 0.9.
As to `CC[C@H]1CCC[C@@](C)(N)C1` (relative stereo) [Mrz 2/630], the “Min Lethality” value in data set [3] is listed as over 30 mg/kg. In addition, the IC50 at NMDA receptor was 443 µM.
Turning to `C[C@H]1CCC[C@@](C)(N)C1` (relative stereo) [Mrz 2/631], the “Min Lethality” value in data set [3] is over 30 mg/kg.
For `CC[C@H]1CC(C)(C)C[C@@](C)(N)C1` (relative stereo) [Mrz 2/632], the selectivity ratio in data set [1] (rotarod versus mes) worked out at 3.4; in data set [2], 2.7.
For the compound `CC[C@@H]1CC(C)(C)C[C@@](C)(N)C1` (relative stereo) [Mrz 2/633], the figures for the selectivity ratio in data set [1] (rotarod versus mes) and in data set [2] were 3 and 2.4, respectively.
Usually ED50 stands for the midpoint of the dose-response relation. A higher ED50 goes with weaker potency. For `CCC[C@H]1CC(C)(C)C[C@@](C)(N)C1` (relative stereo) [Mrz 2/634], the ED50 in data set [4] (Table 8) is over 30 mg/kg; in data set [4] (i.p. 30 min before, Table 7), over 30 mg/kg. Also, in data set [3], the “Min Lethality” value was over 30 mg/kg.
As to `CCC[C@@H]1CC(C)(C)C[C@@](C)(N)C1` (relative stereo) [Mrz 2/635], the selectivity ratio worked out at 1.4 in data set [1] (rotarod versus mes) and 1.3 in data set [2].
Take `C[C@H]1CC(C)(C)C[C@@](C)(N)C1` (relative stereo) [Mrz 2/643]: in data set [4] (i.p. 30 min before, Table 7), it took a dose of 16.6 mg/kg to reach the 50% effect level (ED50). For the same compound, the “TI Tract. (ED50 traction reflex impairment / ED50 MES)” value in the data set with traction reflex in mice worked out at 1.3.
For `C[C@@H]1C[C@H](C)C[C@@](C)(N)C1` [MRZ 2/680, 1-amino-1(trans),3(trans),5-trimethylcyclohexane], the “TI Tract. (ED50 traction reflex impairment / ED50 MES)” value with traction reflex in mice stood at 0.7.
As for `C[C@@H]1C[C@H](C)C[C@](C)(N)C1` [MRZ 2/681, 1-amino-1(cis),3(cis),5-trimethylcyclohexane], the selectivity ratio in data set [1] (rotarod versus mes) turned out to be 5.3. For the same compound, the “TI Tract. (ED50 traction reflex impairment / ED50 MES)” value with traction reflex in mice is 2.1.
`CC[C@H]1CC(C)(C)C[C@](C)(N)C1` [MRZ 2/682, 1-amino-(1R,5S)trans-3-ethyl-1,5,5-trimethylcyclohexane]: the “TI Tract. (ED50 traction reflex impairment / ED50 MES)” value with traction reflex in mice came to 2.7.
As for `CC[C@H]1CC(C)(C)C[C@@](C)(N)C1` [MRZ 2/683, 1-amino-(1S,5S)cis-3-ethyl-1,5,5-trimethylcyclohexane], the “TI Tract. (ED50 traction reflex impairment / ED50 MES)” value with traction reflex in mice amounted to 2.7.
Turning to `CC1(C)CC(N)CC(C)(C)C1` [Mrz 2/557], the selectivity ratio in data set [1] (rotarod versus mes) turned out to be 1.4; in data set [2], 1.
For `CC1(C)CC(CN)CC(C)(C)C1.Cl` [Mrz 2/580, 3,3,5,5-tetramethylcyclohexylmethylamine hydrochloride], the values for the selectivity ratio in data set [1] (rotarod versus mes) and in data set [2] were 1.3 and 1.6, respectively. In addition, in data set [3], the “Min Lethality” value amounted to 50 mg/kg.
Turning to `CCCC1(N)CC(C)(C)CC(C)(C)C1` [Mrz 2/601, 1-amino-1-propyl-3,3,5,5-tetramethylcyclohexane], the “MES ED50” value in data set [4] is reported as 15.6 mg/kg i.p. In addition, the selectivity ratio in data set [1] (in vivo) and in data set [2] was 1.5 each time. Besides, the “Min Lethality” value in data set [3] came out at 50 mg/kg.
In the case of `CCCC1(C)CC(C)(C)CC(C)(N)C1` (stereo not shown) [Mrz 2/614], in the data set with traction reflex in mice, the “TI Tract. (ED50 traction reflex impairment / ED50 MES)” value came to 1.9.
Regarding `CCC1(C)CC(C)(C)CC(C)(N)C1` (stereo not shown) [Mrz 2/615, 1-amino-1,3,5,5-tetramethyl-3-ethylcyclohexane], the selectivity ratio in data set [1] (rotarod versus mes) was 3.2; in data set [2], 2.5. Moreover, in data set [3], the “Min Lethality” value was 50 mg/kg.
Regarding `CCCC1(C)CCCC(C)(N)C1` (stereo not shown) [Mrz 2/617], the “TI Tract. (ED50 traction reflex impairment / ED50 MES)” value in the data set on traction reflex in mice was determined as 1.1.
Turning to `CCC1(C)CCCC(C)(N)C1` (stereo not shown) [Mrz 2/620], the selectivity ratio in data set [1] (rotarod versus mes) was 1.1. For the same compound, the “TI Tract. (ED50 traction reflex impairment / ED50 MES)” value in the data set with traction reflex in mice worked out at 1.6.
On to `CCC1(CC)CC(C)(C)CC(C)(N)C1` (stereo not shown) [Mrz 2/623, 1-amino-1,5,5-trimethyl-3,3-diethylcyclohexane], for which the values for the selectivity ratio in data set [1] (rotarod versus mes) and in data set [2] were 1.8 and 1.4, respectively. Besides, the “Min Lethality” value in data set [3] is given as over 30 mg/kg.
Take `CCCC1(CCC)CC(C)(C)CC(C)(N)C1` (stereo not shown) [Mrz 2/626]: in the data set on traction reflex in mice, the “TI Tract. (ED50 traction reflex impairment / ED50 MES)” value worked out at 1.1.
Turning to `CCNC1(C)CC(C)(C)CC(C)(C)C1` [Mrz 2/639, N-ethyl-1-amino-1,3,3,5,5-pentamethylcyclohexane], the selectivity ratio in data set [1] (rotarod versus mes) turned out to be 4.4; in data set [2], 2.6. Besides, the “Min Lethality” value in data set [3] turned out to be 30 mg/kg.
On to `CNC1(C)CC(C)(C)CC(C)(C)C1.Cl` [Mrz 2/640, N,1,3,3,5,5-hexamethylcyclohexanamine hydrochloride], for which the selectivity ratio stood at 3.3 in data set [1] (rotarod versus mes) and 2.3 in data set [2]. Besides, the “Min Lethality” value in data set [3] was 108 mg/kg.
Turning to `CC1(N)CCCCC1` [Mrz 2/641], in data set [3], the “Min Lethality” value is over 50 mg/kg.
Consider `CN(C)C1(C)CC(C)(C)CC(C)(C)C1` [Mrz 2/642], for which the “MES ED50” value in data set [4] came to 8.04 mg/kg i.p. Moreover, the selectivity ratio in data set [1] (in vivo) is 5.3; in data set [2], 4.1.
As to `CC1(C)CC(CCN)CC(C)(C)C1` [Mrz 2/644], the selectivity ratio in data set [1] (rotarod versus mes) was 0.6; in data set [2] it was 0.5.
With `CC(C)(N)CC1CC(C)(C)CC(C)(C)C1` [Mrz 2/645], the “TI Tract. (ED50 traction reflex impairment / ED50 MES)” value in the data set with traction reflex in mice is given as 0.6.
For the compound `CC1(C)CC(C)(C)CC(C)(CCN)C1` [Mrz 2/662], the selectivity ratio in data set [1] (rotarod versus mes) turned out to be 1.2; in data set [2], 1.

(Values after patent publication US6071966A, “1-amino-alkylcyclohexane NMDA receptor antagonists” (Merz + Co. GmbH & Co., priority 1998, dated 2000).)
